ChEMBL document CHEMBL3868596, “A new target for Parkinson's disease: Small molecule SERCA activator CDN1163 ameliorates dyskinesia in 6-OHDA-lesioned rats” (Bioorg Med Chem, 2017)
Activity calls are given as the source filed them. The calls are words filed in the database; no cut-off is given here.

What was measured:
[1] = Tmax in mouse at 2 mg/kg, po or 1 mg/kg, iv; format: ADME, organism-based; conditions: in vivo
[2] = Cmax in mouse at 2 mg/kg, po or 1 mg/kg, iv; format: ADME, organism-based; conditions: in vivo
[3] = AUC in mouse at 2 mg/kg, po or 1 mg/kg, iv; format: ADME, organism-based; conditions: in vivo
[4] = Metabolic stability in human liver microsomes measured after 1 hr; format: ADME; conditions: read-out: Stability
[5] = Metabolic stability in mouse plasma measured after 1 hr; format: ADME, cell-free; conditions: read-out: Stability
[6] = Permeability of the compound by PAMPA; format: ADME
[7] = Ratio of drug level in mouse brain to plasma at 10 mg/kg, ip measured after 1 hr; format: ADME, organism-based; conditions: read-out: BPR
HeLa = experiment: Activation of SERCA in human HeLa cells expressing YFP/CFP fused cameleon assessed as reduction in thapsigargin-induced decrease in endoplasmic reticulum calcium level by inverted wide-field fluorescence microscopy; format: cell-based
[8] = Cytoprotection against thapsigargin-induced ER-stress in rat CSM14.1 cells assessed as cell viability at 15 ug/ml preincubated for 2 hrs followed by thapsigargin addition measured after 20 hrs by ATPlite assay relative to thapsigargin treated control; format: functional; conditions: read-out: Activity
Rattus norvegicus [9] = experiment: (§1) Antiakinetic activity in 6-OHDA induced unilaterally lesioned Wistar rat Parkinson's disease model assessed as reduction in 6-OHDA-induced increase in initiation time to move towards plane surface at 10 mg/kg, ip qd administered 5 days prior to 6-OHDA-challenge measured 1 hr post compound treatment on day 11 relative to non-lesioned control; format: functional, organism-based
Rattus norvegicus [10] = experiment: (§2) Antiakinetic activity in 6-OHDA induced unilaterally lesioned Wistar rat Parkinson's disease model assessed as restoration of 6-OHDA-induced decrease in number of adjusting steps in contralateral forelimb at 10 mg/kg, ip qd administered 5 days prior to 6-OHDA-challenge measured on day 11 post 1 hr of last dosage; format: functional, organism-based
Rattus norvegicus [11] = experiment: Antiakinetic activity in 6-OHDA induced unilaterally lesioned Wistar rat Parkinson's disease model assessed as assessed as increase in double contacts compound administered ip, qd for 5 days prior to 6-OHDA-challenge measured on day 11 post 1.5 hr of last dosage by cylinder test; format: functional
Homo sapiens = organism: Homo sapiens; experiment: Activation of SERCA (unknown origin)
Rattus norvegicus [12] = organism: Rattus norvegicus; experiment: Cytoprotection against thapsigargin-induced ER-stress in rat CSM14.1 cells assessed as increase in cell viability preincubated for 2 hrs followed by thapsigargin addition measured after 20 hrs by ATPlite assay relative to thapsigargin treated control; format: functional, cell-based
Rattus norvegicus [13] = experiment: as §2, with “administered” for “at 10 mg/kg,”, “for” for “administered”; format: functional, organism-based
Rattus norvegicus [14] = experiment: Antiakinetic activity in 6-OHDA induced unilaterally lesioned Wistar rat Parkinson's disease model assessed as increase in double contacts at 10 mg/kg, ip qd administered 5 days prior to 6-OHDA-challenge measured on day 11 post 1.5 hr of last dosage by cylinder test; format: functional, organism-based
Rattus norvegicus [15] = experiment: as §1, with “administered” for “at 10 mg/kg,”, “for” for “administered”; format: functional, organism-based

Tmax [1] [min]	Cmax [2] [nM]	AUC [3] [µM·h]	remaining at 1 h [4] [%]	remaining at 1 h [5] [%]	permeability [6]	Kp at 1 h [7]	Activity (Homo sapiens)	Compound	Activity (HeLa)	viability at 15 µg/mL [8] [%]	Activity (Rattus norvegicus [9])	Activity (Rattus norvegicus [10])	Activity (Rattus norvegicus [11])	Activity (Rattus norvegicus [12])	Activity (Rattus norvegicus [13])	Activity (Rattus norvegicus [14])	Activity (Rattus norvegicus [15])
40.2	260	0.41	58	94	Permeable	2.83 to 3	Active	Cc1ccc2cccc(NC(=O)c3ccc(OC(C)C)cc3)c2n1	Active	100	Active	Active	Active	Dose-dependent effect			
								N[C@@H](Cc1ccc(O)c(O)c1)C(=O)O							Active	Active	Active
